According to patent US20090191173A1, “Induction Of Neurogenesis And Stem Cell Therapy In Combination With Copolymer 1” (priority 2004, published 2009):
Like-named read-outs stand apart in the source and are kept apart here.

Tests used:
[1] = test system: neural progenitor cells (NPCs); experiment: Neurogenesis from NPCs co-cultured with microglia pre-activated by aggregated Aβ and cytokines; format: cell-based, mouse; details: 10 days; Aβ 5 μM 48 h, cytokines 10 ng/ml
Description: (xx) Reagents. Recombinant mouse IFN-γ and IL-4 (both containing endotoxin at a concentration below 0.1 ng/μg cytokine) were obtained from R&D Systems (Minneapolis, Minn.). β-amyloid peptides [amyloid protein fragment 1-40 and 1-42 (Aβ1-40/1-42)] were purchased from Sigma-Aldrich, St. Louis, Mo. The Aβ peptides were dissolved in endotoxin-free water, and Aβ aggregates were formed by incubation of Aβ, as described (Ishii et al., 2000). (xxv) Neural progenitor cell culture. Coronal sections (2 mm thick) of tissue containing the subventricular zone of the lateral ventricle were obtained from the brains of adult C57B1/6J mice. […] After centrifugation at 110×g for 15 min at room temperature, the tissue was mechanically dissociated by pipette trituration. Cells obtained from single-cell suspensions were plated (3500 cells/cm^2) in 75-cm^2 Falcon tissue-culture flasks (BD Biosciences, San Diego, Calif.), in NPC-culturing medium [Dulbecco's modified Eagles's medium (DMEM)/F12 medium (Gibco/Invitrogen, Carlsbad, Calif.) containing 2 mM L-glutamine, 0.6% glucose, 9.6 μg/ml putrescine, 6.3 ng/ml progesterone, 5.2 ng/ml sodium selenite, 0.02 mg/ml insulin, 0.1 mg/ml transferrin, 2 μg/ml heparin (all from Sigma-Aldrich, Rehovot, Israel), fibroblast growth factor-2 (human recombinant, 20 ng/ml), and epidermal growth factor (human recombinant, 20 ng/ml; both from Peprotech, Rocky Hill, N.J.)]. Spheres were passaged every 4-6 days and replated as single cells. Green fluorescent protein (GFP)-expressing NPCs were obtained as previously described (Pluchino et al., 2003). (xxvi) Primary microglial culture. Brains from neonatal (P0-P1) C57B1/6J mice were stripped of their meninges and minced with scissors under a dissecting microscope (Zeiss, Stemi DV4, Germany) in Leibovitz-15 medium (Biological Industries, Kibbutz Beit Ha-Emek, Israel). […] The cell suspension was washed in culture medium for glial cells [DMEM supplemented with 10% fetal calf serum (FCS; Sigma-Aldrich, Rehovot), L-glutamine (1 mM), sodium pyruvate (1 mM), penicillin (100 U/ml), and streptomycin ([…])] and cultured at 37° C./5% CO2 in 75-cm^2 Falcon tissue-culture flasks (BD Biosciences) coated with poly-D-lysine (PDL) (10 mg/ml; Sigma-Aldrich, Rehovot) in borate buffer (2.37 g borax and 1.55 g boric acid dissolved in 500 ml sterile water, pH 8.4) for 1 h, then rinsed thoroughly with sterile, glass-distilled water. Half of the medium was changed after 6 h in culture and every 2nd day thereafter, starting on day 2, for a total culture time of 10-14 days. […]

[2] = test system: spinal cord injury (SCI) in C57B1/6J mice; format: in vivo, mouse
[3] = test system: neural progenitor cells (NPCs); experiment: Oligodendrocyte differentiation (NG2, RIP, GalC) of NPCs co-cultured with activated microglia; format: cell-based, mouse; details: agent added to NPCs co-cultured with MG(IFN-γ)
Description: (iii) Neural progenitor cell (NPC) culture. Coronal sections (2 mm thick) of tissue containing the subventricular zone of the lateral ventricle were obtained from the brains of adult C57B16/J mice. The tissue was minced and then incubated for digestion at 37° C., 5% CO2 for 45 min in Earle's balanced salt solution containing 0.94 mg/ml papain (Worthington, Lakewood, N.J.) and 0.18 mg/ml of L-cysteine and EDTA. After centrifugation at 110×g for 15 min at room temperature, the tissue was mechanically dissociated by pipette trituration. Cells obtained from single-cell suspensions were plated (3500 cells/cm^2) in 75-cm^2 Falcon tissue-culture flasks (BD Biosciences, Franklin Lakes, N.J.), in NPC-culturing medium [Dulbecco's modified Eagles's medium (DMEM)/F12 medium (Gibco/Invitrogen, Carlsbad, Calif.) containing 2 mM L-glutamine, 0.6% glucose, 9.6 μg/ml putrescine, 6.3 ng/ml progesterone, 5.2 ng/ml sodium selenite, 0.02 mg/ml insulin, 0.1 mg/ml transferrin, 2 μg/ml heparin (all from Sigma-Aldrich, Rehovot, Israel), fibroblast growth factor-2 (human recombinant, 20 ng/ml), and epidermal growth factor (human recombinant, 20 ng/ml; both from Peprotech, Rocky Hill, N.J.)]. Spheres were passaged every 4-6 days and replated as single cells. Green fluorescent protein (GFP)-expressing neural progenitor cells (NPCs) were obtained as previously described (Pluchino et al., 2003). […]

“Aβ(1-40): aggregated amyloid protein fragment 1-40” was tested, and the “neurogenesis (GFP+/βIIIT+ cells) from NPCs co-cultured with treated microglia” value [1] was “blocked neurogenesis and decreased the number of NPCs”.

For “Aβ(1-42): aggregated amyloid protein fragment 1-42”, the “neurogenesis (GFP+/βIIIT+ cells) from NPCs co-cultured with treated microglia” value [1] was “negative effect was not exhibited”.

In the case of “MEVGWYRSPFDRVVHLYRNGK [45D peptide, altered MOG 35-55 peptide, serine to aspartic acid substitution]”, the “Basso motor score (BMS), mean±SEM” value ([2]; immunization in CFA 2.5% M. tuberculosis, without aNPC transplantation (FIG. 7C)) is reported as 2.57±0.24 and the “Basso motor score (BMS), mean±SEM” value ([2]; vaccination in CFA 2.5% M. tuberculosis 1 week before SCI, aNPCs i.c.v. 1 week after SCI (FIG. 7C)) is reported as 4.11±0.27.

In the case of “MEVGWYRSPFSRVVHLYRNGK [MOG/CFA, MOG peptide 35-55 emulsified in CFA containing 2.5% Mycobacterium tuberculosis]”, the “Basso motor score (BMS)” value ([2]; MOG 35-55 in CFA 2.5% M. tuberculosis one week prior to SCI, no aNPCs (FIGS. 7G, 7H)) is reported as 0.35±0.2.

In the case of “MEVGWYRSPFSRVVHLYRNGK [MOG/CFA/PBS, pMOG 35-55 emulsified in CFA, PBS i.c.v. instead of cells]”, the “Basso motor score (BMS), mean±SEM” value ([2]; immunization immediately after SCI, CFA containing 0.5% Mycobacterium tuberculosis, i.c.v. injection 1 week later (FIG. 7A)) is reported as 2.71±0.5.

B1: OVA/CFA/PBS: nonself protein ovalbumin emulsified in CFA, PBS i.c.v. (protein, UniProt P01012 2-386, looked up)
Ovalbumin: GSIGAASMEFCFDVFKELKVHHANENIFYCPIAIMSALAMVYLGAKDSTRTQINKVVRFDKLPGFGDSIEAQCGTSVNVHSSLRDILNQITKPNDVYSFSLASRLYAEERYPILPEYLQCVKELYRGGLEPINFQTAADQARELINSWVESQTNGIIRNVLQPSSVDSQTAMVLVNAIVFKGLWEKAFKDEDTQAMPFRVTEQESKPVQMMYQIGLFRVASMASEKMKILELPFASGTMSMLVLLPDEVSGLEQLESIINFEKLTEWTSSNVMEERKIKVYLPRMKMEEKYNLTSVLMAMGITDVFSSSANLSGISSAESLKISQAVHAAHAEINEAGREVVGSAEAGVDAASVSEEFRADHPFLFCIKHIATNAVLFFGRCVSP
modifications: emulsified in CFA
B1 was tested, and the “Basso motor score (BMS)” value ([2]; OVA in CFA 2.5% M. tuberculosis, i.c.v. injection 1 week later (FIG. 7F)) was 2.2±0.68.

B2: rTNF-α: recombinant mouse TNF-α (protein)
chain: LRSSSQNSSDKPVAHVVANHQVEEQLEWLSQRANALLANGMDLKDNQLVVPADGLYLVYSQVLFKGQGCPDYVLLTHTVSRFAISYQEKVNLLSAVKSPCPKDTPEGAELKPWYEPIYLGGVFQLEKGDQLSAEVNLPKYLDFAESGQVYFGVIAL
B2 was tested, and the “oligodendrogenesis induced by MG(IFN-γ)” value [3] was “negative effect”.
